According to the NIST ThermoML archive (doi:10.1021/acs.jced.5b00654):
Where “and” joins values, the source holds several entries; their conditions need not be identical. Equal entries are not always repeated.

Details: Fluid (supercritical or subcritical phases); for viscosity: Vibrating wire viscometry; for mass density: Buoyancy - hydrostatic balance with magnetic suspension - one sinker

CCCC [butane]
Details	mass density	viscosity
428.09 K, 5150.2 kPa	–	0.04428 mPa·s
428.1 K, 796.14 kPa	14.038 kg/m3	0.01066 mPa·s
428.1 K, 796.19 kPa	14.041 kg/m3	0.01066 mPa·s
428.1 K, 904.9 kPa	16.138 kg/m3	0.01069 mPa·s
428.1 K, 1964.1 kPa	40.163 kg/m3	0.01117 mPa·s
428.1 K, 4625.9 kPa	341.66 kg/m3	0.04038 mPa·s
428.11 K, 131.61 kPa	2.1741 kg/m3	0.01052 mPa·s
428.11 K, 131.64 kPa	2.1741 kg/m3	0.01052 mPa·s
428.11 K, 904.86 kPa	16.141 kg/m3	0.01069 mPa·s
428.11 K, 1964.3 kPa	40.167 kg/m3	0.01118 mPa·s
428.11 K, 4626.6 kPa	341.66 kg/m3	0.04035 mPa·s
428.11 K, 4626.8 kPa	341.65 kg/m3	0.04033 mPa·s
428.12 K, 685.03 kPa	11.939 kg/m3	0.01063 mPa·s
428.12 K, 2306.2 kPa	49.889 kg/m3 and 49.887 kg/m3	0.01144 mPa·s
428.12 K, 3964.9 kPa	218.37 kg/m3	0.02262 mPa·s
428.12 K, 3984.8 kPa	246.5 kg/m3	0.02576 mPa·s
428.12 K, 3984.9 kPa	246.49 kg/m3	0.02577 mPa·s
428.13 K, 480.91 kPa	8.2126 kg/m3	0.01059 mPa·s
428.13 K, 578.67 kPa	9.9774 kg/m3	0.01061 mPa·s
428.13 K, 684.54 kPa	11.929 kg/m3	0.01063 mPa·s
428.13 K, 2624.6 kPa	60.353 kg/m3	0.01177 mPa·s
428.13 K, 2624.7 kPa	60.36 kg/m3	0.01177 mPa·s
428.13 K, 2862.9 kPa	69.476 kg/m3	0.01209 mPa·s
428.13 K, 3655.2 kPa	119.22 kg/m3	0.01443 mPa·s
428.13 K, 3964.8 kPa	218.33 kg/m3	0.02263 mPa·s
428.13 K, 3990.1 kPa	251.58 kg/m3 and 251.63 kg/m3	0.02637 mPa·s and 0.02638 mPa·s
428.13 K, 5948.9 kPa	378 kg/m3	0.04846 mPa·s
428.13 K, 5949.6 kPa	378.01 kg/m3 and 378.02 kg/m3	0.04837 mPa·s and 0.04844 mPa·s
428.14 K, 480.81 kPa	8.2112 kg/m3	0.01059 mPa·s
428.14 K, 578.76 kPa	9.9803 kg/m3	0.01061 mPa·s
428.14 K, 1041.2 kPa	18.856 kg/m3	0.01073 mPa·s
428.14 K, 2862.8 kPa	69.471 kg/m3	0.01209 mPa·s
428.14 K, 3427.1 kPa	99.322 kg/m3	0.01338 mPa·s
428.14 K, 3655.7 kPa	119.23 kg/m3	0.01444 mPa·s
428.14 K, 4145.9 kPa	304.6 kg/m3	0.03374 mPa·s
428.14 K, 4146.2 kPa	304.61 kg/m3	0.03373 mPa·s
428.14 K, 30018 kPa	498.2 kg/m3	0.09505 mPa·s
428.14 K, 30022 kPa	498.2 kg/m3	0.09486 mPa·s
428.14 K, 30023 kPa	498.21 kg/m3	0.09498 mPa·s
428.15 K, 1040.7 kPa	18.847 kg/m3	0.01073 mPa·s
428.15 K, 3263.7 kPa	88.854 kg/m3	0.01288 mPa·s
428.15 K, 3427.2 kPa	99.316 kg/m3	0.01337 mPa·s
428.15 K, 4067.3 kPa	289 kg/m3	0.03129 mPa·s
428.15 K, 4067.5 kPa	288.98 kg/m3	0.03132 mPa·s
428.15 K, 12773 kPa	440.28 kg/m3	0.06754 mPa·s
428.15 K, 17075 kPa	460.12 kg/m3	0.07551 mPa·s
428.15 K, 17077 kPa	460.12 kg/m3	0.07561 mPa·s
428.16 K, 62.1 kPa	1.0176 kg/m3	0.01051 mPa·s
428.16 K, 3263.8 kPa	88.856 kg/m3	0.01289 mPa·s
428.16 K, 7467.1 kPa	399.68 kg/m3	0.05418 mPa·s
428.16 K, 7467.5 kPa	399.69 kg/m3	0.05413 mPa·s
428.16 K, 9661.1 kPa	420.21 kg/m3	0.06045 mPa·s
428.16 K, 9662.3 kPa	420.22 kg/m3	0.06047 mPa·s
428.16 K, 12732 kPa	440.05 kg/m3	0.06741 mPa·s
428.16 K, 12735 kPa	440.06 kg/m3	0.06744 mPa·s
428.17 K, 62.1 kPa	1.0183 kg/m3	0.01051 mPa·s
428.17 K, 3976.1 kPa	230.45 kg/m3	0.02394 mPa·s
428.17 K, 7466.2 kPa	399.67 kg/m3	0.05411 mPa·s
428.18 K, 62.1 kPa	1.0176 kg/m3	0.01051 mPa·s
428.18 K, 1098.5 kPa	20.025 kg/m3	0.01075 mPa·s
428.18 K, 1099.1 kPa	20.038 kg/m3	0.01075 mPa·s
428.18 K, 3790.9 kPa	137.62 kg/m3	0.01558 mPa·s
428.18 K, 3953.3 kPa	199.18 kg/m3	0.02063 mPa·s
428.18 K, 3976.3 kPa	230.48 kg/m3	0.02395 mPa·s
428.18 K, 4312 kPa	322.22 kg/m3	0.03673 mPa·s
428.18 K, 4312.4 kPa	322.24 kg/m3 and 322.25 kg/m3	0.03673 mPa·s and 0.03668 mPa·s
428.19 K, 3883.8 kPa	159.22 kg/m3	0.01712 mPa·s
428.19 K, 3884.1 kPa	159.21 kg/m3	0.01712 mPa·s
428.19 K, 3938.7 kPa	185.24 kg/m3	0.01931 mPa·s
428.19 K, 3939.2 kPa	185.3 kg/m3	0.01933 mPa·s
428.19 K, 3953.5 kPa	199.12 kg/m3	0.02064 mPa·s
